Patent US7611856B2 (priority 2003, dated 2009)

System: BoNT
Assay type: biochemical, Clostridium botulinum

(SNRTRIDQGNQRATRNleL)4K2KC(beta)A [Substrate 39]
specific turnover over unspecific protease background cleavage reactions: shown to increase the specific turnover
